The test system of assay [1] is A431-CCK2R/A431-mock tumor xenograft-bearing BALB/c nude mice. In words: Near-infrared fluorescence imaging, A431-CCK2R/A431-mock xenografts. It counts as in vivo, mouse. The procedure:
All animal experiments were conducted in accordance with regulations and guidelines of the Czech Animal Protection Act (No. 246/1992), and with the approval of the Czech Ministry of Education, Youth, and Sports (MSMT-22421/2013–12), and the institutional Animal Welfare Committee of the Faculty of Medicine and Dentistry of Palacky University in Olomouc. The studies were performed using female 8–10-week-old athymic BALB/c nude mice (Envigo, Horst, The Netherlands). […]
Tumor xenografts were established near the front shoulder of mice by subcutaneous injection of 5 × 10^6 cells (U-87 MG) or 2 × 10^6 cells (A431-CCK2R) and the same amount of A431-mock cells as a control in 200 μL appropriate medium and Matrigel (1:1). […] Tumors, blood, muscle tissue, and organs were extracted, weighed, and activity uptake of the samples was measured in the gamma counter. Results were expressed as percentage of injected dose per gram tissue (% ID/g). […] After reconstruction, acquired data was viewed and analyzed with PMOD software (PMOD Technologies Ltd., Zurich, Switzerland). […] Near-infrared in vivo fluorescence imaging was performed with an In-Vivo MS FX PRO small animal imaging system (Bruker Biospin Corporation, Woodbridge, CT, USA). […] An appropriate filter set (excitation = 730 nm and emission = 790 nm) was used for acquiring the Sulfo-Cy7-FSC-peptide - fluorescence in vivo. […]

Assay [2] addresses T1, human CCK-2 receptor (Homo sapiens, UniProt P32239).
T1 construct: expressed in transfected cells; host or cells: A431 human squamous carcinoma cells (gift from L. Aloj)
T1 sequence (P32239 1-447): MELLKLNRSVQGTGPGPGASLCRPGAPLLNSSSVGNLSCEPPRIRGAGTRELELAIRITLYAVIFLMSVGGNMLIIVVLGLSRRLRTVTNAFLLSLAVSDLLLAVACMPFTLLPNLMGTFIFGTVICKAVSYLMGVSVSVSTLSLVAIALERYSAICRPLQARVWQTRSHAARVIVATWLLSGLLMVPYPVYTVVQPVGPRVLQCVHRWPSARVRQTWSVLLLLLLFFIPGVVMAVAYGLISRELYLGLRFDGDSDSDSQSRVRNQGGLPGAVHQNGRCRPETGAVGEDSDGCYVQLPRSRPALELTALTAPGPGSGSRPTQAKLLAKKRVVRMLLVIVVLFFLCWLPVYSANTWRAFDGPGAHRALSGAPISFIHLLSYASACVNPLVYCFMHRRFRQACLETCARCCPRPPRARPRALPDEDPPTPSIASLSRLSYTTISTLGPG
Briefly: Whole cell receptor binding affinity (displacement of [125I]-[Leu15]-Gastrin I) on A431-CCK2R cells. The procedure: (§1) Receptor binding affinities were evaluated via a displacement cell-binding assay for metal free as well as metal bound ([^natGa]) conjugates. Binding of nonradioactive gallium was performed in analogy to the radiolabeling procedure but instead of the generator eluate a 100-fold molar excess of gallium bromide (GaBr3) dissolved in 100 μL 0.1 N HCl was used. Cells were prepared as described below and incubated with increasing concentrations [0.001–1000 nM] of competitor in triplicate. After addition of corresponding iodinated radioligand the 96-well MulitScreen Filter Plates HTS (1 μm glass fiber filter, Merck Millipore, Darmstadt, Germany) were incubated for 1 or 2 h at RT under shaking conditions (Compact shaker KS-15 control, 200/min) and after a washing step the remaining activity on the filter was measured in the γ-counter. The receptor affinity of DOTA-minigastrin11 as well as c(RGDyV) were determined under the corresponding conditions as a reference. IC50 values were calculated by using nonlinear curve fitting with following formula NS+SB/(1+x/IC50) on Origin 6.1 software (Northampton, MA, USA). A detailed description regarding iodination can be found in the Supporting Information.
A431-CCK2R cells were diluted in 50 mM HEPES buffer (pH 7.3) containing 5 mM MgCl2 and 0.3% BSA to a density of 5 × 10^6 cells/mL. 96-well plates were washed with 200 μL of 10 mM TRIS buffered saline (pH 7.3) and 100 μL of cell suspension were added to each well. Hereafter 50 μL of competitor solution {([^natGa])Sulfo-Cy7-FSC-MG or DOTA-minigastrin^11 diluted in 20 mM HEPES; 10 mM MgCl2 and 0.1% BSA} of each concentration were added and left for 10 min at RT. After incubation with 50 μL of radioligand (human [^125I]-[Leu^15]-Gastrin I 4.5 × 10^4 cpm) for 1 h the plate was washed twice with 200 μL TRIS-buffer/well.
A general note: Loss of bound radioactivity is the signal in a displacement assay; it reports binding, not function.

Assay [3] deals with A431-CCK2R cells. In words: Fluorescence measured cell specificity, A431-CCK2R. In kind it is cell-based, human. The settings on record: 2 h incubation, 3 nM ligand. On the procedure: Fluorescence assays were conducted similarly to the internalization assays except for using lower cell numbers and determining only the cellbound fraction. Briefly, A431-CCK2R, M21, and M21-L cells were diluted in corresponding media to a density of 2 × 10^6 cells/mL. Aliquots of 0.5 mL were transferred to Eppendorf tubes—six technical replicates for A431-CCK2R unblocked and blocked and M21/M21-L, respectively—and treated in the same manner as described above. The nonradiolabeled particular ligand was added to a final concentration of 3 nM and the tubes were kept in an incubator (Incubator hood TH15 and Compact shaker KS-15 control, Edmund Bühler GmbH, Hechingen, Germany) at 37 °C for 2 h under vigorously shaking (420/min). After centrifugation (2 min, 5000 rpm) washing steps were performed as mentioned before. […] Fluorescence intensity was measured with Tecan Infinite 200 PRO series multiplate reader (Tecan Trading AG, Switzerland) by using Tecan Icontrol 1.1 software. Parameters were set as follows: Fluorescence Top reading; excitation/emission wavelength 740/790 nm; excitation bandwidth 9 nm; emission bandwidth 20 nm; gain optimal; number of flashes 25; integration time 25 μs. Results were calculated and expressed as percentage of cell-bound fluorescence in relation to the standards sample.

Assay [4] concerns the target T2, integrin αvβ3 (Homo sapiens, UniProt P05106+P06756).
T2 construct: endogenous in cells; host or cells: human melanoma M21 cells (gift from D. A. Cheresh)
Briefly: Integrin binding affinity assay (displacement of [125I]-c(RGDyV)) on M21 cells. The procedure:
as §1
Integrin binding affinity assay was adapted from Yun Wu et al.[31] Briefly, M21 cells were washed two times with phosphate buffered saline followed by suspension in binding buffer (=20 mM TRIS pH 7.4 + 150 mM NaCl + 2 mM CaCl2 + 1 mM MgCl2 + 1 mM MnCl2 0.1% BSA). 96-well plates were washed with 200 μL of 20 mM TRIS-buffer and seeded with 1 × 10^6 cells/well (10^7 cells/mL). After 10 min of incubation in the presence of the competitor {([^natGa])Sulfo-Cy7-FSC-RGD or c(RGDyV) diluted in binding buffer)} volume was adjusted to 200 μL/well by adding 50 μL of radioligand ([^125I]-c(RGDyV), 4.5 × 10^4 cpm) and the plate was left for 2 h at RT. Finally the supernatant was removed by vacuum and each well was washed three times with 200 μL ice-cold binding buffer.

Setting [5] is: metal-bound ([natGa]) complexed form.

*1 amine or outer side, *2 acyl side, *3 side chain or, on linkers, in order; H or OH if unused. Where a SMILES comes first, the peptide text is derived from it. Bridges are numbered along the chain shown (N, C = ends). Roman numbers before positions name the chains, in order. [ ]: non-standard residue; d: D form. X2 = CC1=CC(=O)N(O)CCCC(NC(=O)CCN2C(=O)CC([*:2])C2=O)C(=O)OCCC(C)=CC(=O)N(O)CCCC(NC(=O)CCN2C(=O)CC([*:1])C2=O)C(=O)OCCC(C)=CC(=O)N(O)CCCC(NC(=O)CCCCC[N+]2=C(C=CC3=CC(=CC=C4N(C)c5ccc(S(=O)(=O)O)cc5C4(C)C)CCC3)C(C)(C)c3cc(S(=O)(=O)[O-])ccc32)C(=O)OCC1; Mpa = O=C(O)CCS

For orientation: IC50 means the concentration that gives 50% inhibition.

T2 sequence (P06756 31-889 limits assumed): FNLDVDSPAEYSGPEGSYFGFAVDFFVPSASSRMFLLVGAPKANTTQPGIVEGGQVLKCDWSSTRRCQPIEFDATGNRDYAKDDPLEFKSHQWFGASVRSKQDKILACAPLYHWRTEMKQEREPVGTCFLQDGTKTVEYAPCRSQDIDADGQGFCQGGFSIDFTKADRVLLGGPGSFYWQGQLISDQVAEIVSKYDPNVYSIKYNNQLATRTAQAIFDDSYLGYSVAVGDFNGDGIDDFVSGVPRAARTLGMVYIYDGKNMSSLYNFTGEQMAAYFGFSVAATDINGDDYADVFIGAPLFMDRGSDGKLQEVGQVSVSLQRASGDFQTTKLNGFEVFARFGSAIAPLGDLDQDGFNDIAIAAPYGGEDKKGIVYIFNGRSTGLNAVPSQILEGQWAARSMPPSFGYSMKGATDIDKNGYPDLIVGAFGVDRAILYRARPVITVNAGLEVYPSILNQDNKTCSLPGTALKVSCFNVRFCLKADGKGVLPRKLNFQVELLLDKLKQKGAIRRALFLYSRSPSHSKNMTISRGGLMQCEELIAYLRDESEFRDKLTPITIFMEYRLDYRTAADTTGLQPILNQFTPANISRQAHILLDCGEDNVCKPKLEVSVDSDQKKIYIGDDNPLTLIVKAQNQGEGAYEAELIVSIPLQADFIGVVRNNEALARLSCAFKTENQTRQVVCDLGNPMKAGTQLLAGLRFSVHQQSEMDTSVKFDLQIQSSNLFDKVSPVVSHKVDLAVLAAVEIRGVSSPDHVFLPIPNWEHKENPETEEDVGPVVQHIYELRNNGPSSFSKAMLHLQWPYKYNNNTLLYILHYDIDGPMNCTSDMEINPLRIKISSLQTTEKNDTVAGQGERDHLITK
T2 sequence (P06756 891-1048 partner limits assumed): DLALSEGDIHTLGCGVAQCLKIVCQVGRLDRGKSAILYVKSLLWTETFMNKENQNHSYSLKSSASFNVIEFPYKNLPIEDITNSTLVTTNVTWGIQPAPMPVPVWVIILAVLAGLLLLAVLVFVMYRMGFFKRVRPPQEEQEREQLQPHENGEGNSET
T2 sequence (P05106 27-788): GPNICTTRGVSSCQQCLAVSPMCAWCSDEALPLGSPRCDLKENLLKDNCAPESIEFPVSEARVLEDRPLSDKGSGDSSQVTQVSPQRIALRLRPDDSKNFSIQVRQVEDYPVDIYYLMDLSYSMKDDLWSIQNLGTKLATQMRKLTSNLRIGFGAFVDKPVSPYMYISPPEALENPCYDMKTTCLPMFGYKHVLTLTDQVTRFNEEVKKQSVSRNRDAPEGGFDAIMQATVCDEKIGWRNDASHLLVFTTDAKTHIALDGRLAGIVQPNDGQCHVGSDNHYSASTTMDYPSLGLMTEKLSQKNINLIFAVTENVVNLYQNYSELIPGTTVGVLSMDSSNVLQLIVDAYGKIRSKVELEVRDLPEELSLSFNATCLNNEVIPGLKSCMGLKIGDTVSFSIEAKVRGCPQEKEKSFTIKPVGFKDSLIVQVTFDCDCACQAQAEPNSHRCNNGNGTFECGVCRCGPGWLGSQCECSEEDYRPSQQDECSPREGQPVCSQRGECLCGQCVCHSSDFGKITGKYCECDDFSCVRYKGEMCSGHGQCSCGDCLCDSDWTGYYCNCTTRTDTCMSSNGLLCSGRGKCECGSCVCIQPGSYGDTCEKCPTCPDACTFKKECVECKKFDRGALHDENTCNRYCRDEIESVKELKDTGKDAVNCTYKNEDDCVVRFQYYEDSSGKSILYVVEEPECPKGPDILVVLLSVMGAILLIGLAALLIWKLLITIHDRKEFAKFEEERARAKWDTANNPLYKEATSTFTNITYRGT

Regarding `CSCC[C@H](NC(=O)[C@H](Cc1c[nH]c2ccccc12)NC(=O)CNC(=O)[C@H](Cc1ccc(O)cc1)NC(=O)[C@H](C)NC(=O)[C@@H](CCC(=O)O)NC(=O)CCSC1CC(=O)N(CCC(=O)NC2CCCN(O)C(=O)C=C(C)CCOC(=O)C(NC(=O)CCN3C(=O)CC(SCCC(=O)N[C@H](CCC(=O)O)C(=O)N[C@@H](C)C(=O)N[C@@H](Cc4ccc(O)cc4)C(=O)NCC(=O)N[C@@H](Cc4c[nH]c5ccccc45)C(=O)N[C@@H](CCSC)C(=O)N[C@@H](CC(=O)O)C(=O)N[C@@H](Cc4ccccc4)C(N)=O)C3=O)CCCN(O)C(=O)C=C(C)CCOC(=O)C(NC(=O)CCCCC[N+]3=C(C=CC4=CC(=CC=C5N(C)c6ccc(S(=O)(=O)O)cc6C5(C)C)CCC4)C(C)(C)c4cc(S(=O)(=O)[O-])ccc43)CCCN(O)C(=O)C=C(C)CCOC2=O)C1=O)C(=O)N[C@@H](CC(=O)O)C(=O)N[C@@H](Cc1ccccc1)C(N)=O` (stereo partly drawn) [Sulfo-Cy7-FSC-MG, Sulfo-Cyanine7-FSC-(mal-MG11)2] (I: [Mpa][dE]AYGWMDF-NH2 / II: [Mpa][dE]AYGWMDF-NH2; linker I:1-II:1 via X2), the “optical imaging tumor contrast” value is “moderate contrast” in assay [1] (2 h after injection) and “excellent contrast” in assay [1] (5 h up to 3 days p.i.). Also, the IC50 came out at 2.68 ± 0.53 nM in assay [2] (setting [5]) and 2.81 ± 0.66 nM in assay [2] (metal-free (uncomplexed) conjugate or reference peptide, radioligand [125I]-[Leu15]-Gastrin I, 1 h RT). Moreover, the values for the Fluorescence-determined cell uptake in assay [3] (blocked A431-CCK2R cells) and in assay [3] (nonblocked A431-CCK2R cells) were 1.65 ± 0.47% and 10.78 ± 1.04%, respectively.
In assay [2] (setting [5]), `CSCC[C@H](NC(=O)[C@H](Cc1c[nH]c2ccccc12)NC(=O)CNC(=O)[C@H](Cc1ccc(O)cc1)NC(=O)[C@H](C)NC(=O)[C@@H](CCC(=O)O)NC(=O)CCSC1CC(=O)N(CCC(=O)NC2CCCN(O)C(=O)C=C(C)CCOC(=O)C(NC(=O)CCN3C(=O)CC(SCCC(=O)N[C@H](CCC(=O)O)C(=O)N[C@@H](C)C(=O)N[C@@H](Cc4ccc(O)cc4)C(=O)NCC(=O)N[C@@H](Cc4c[nH]c5ccccc45)C(=O)N[C@@H](CCSC)C(=O)N[C@@H](CC(=O)O)C(=O)N[C@@H](Cc4ccccc4)C(N)=O)C3=O)CCCN(O)C(=O)C=C(C)CCOC(=O)C(NC(=O)CCCCC[N+]3=C(C=CC4=CC(=CC=C5N(C)c6ccc(S(=O)(=O)O)cc6C5(C)C)CCC4)C(C)(C)c4cc(S(=O)(=O)[O-])ccc43)CCCN(O)C(=O)C=C(C)CCOC2=O)C1=O)C(=O)N[C@@H](CC(=O)O)C(=O)N[C@@H](Cc1ccccc1)C(N)=O` (stereo partly drawn) [[^natGa]Sulfo-Cy7-FSC-MG, metal not drawn] (I: [Mpa][dE]AYGWMDF-NH2 / II: [Mpa][dE]AYGWMDF-NH2; linker I:1-II:1 via X2) gave an IC50 of 2.68 ± 0.53 nM.
In assay [4] ([natGa] bound form), `CC1=CC(=O)N(O)CCCC(NC(=O)CCN2C(=O)CC(SCCOCCOCCOCCOCCC(=O)NCCCC[C@@H]3NC(=O)[C@@H](Cc4ccccc4)NC(=O)[C@H](CC(=O)O)NC(=O)CNC(=O)[C@H](CCCNC(=N)N)NC3=O)C2=O)C(=O)OCCC(C)=CC(=O)N(O)CCCC(NC(=O)CCN2C(=O)CC(SCCOCCOCCOCCOCCC(=O)NCCCC[C@@H]3NC(=O)[C@@H](Cc4ccccc4)NC(=O)[C@H](CC(=O)O)NC(=O)CNC(=O)[C@H](CCCNC(=N)N)NC3=O)C2=O)C(=O)OCCC(C)=CC(=O)N(O)CCCC(NC(=O)CCCCC[N+]2=C(C=CC3=CC(=CC=C4N(C)c5ccc(S(=O)(=O)O)cc5C4(C)C)CCC3)C(C)(C)c3cc(S(=O)(=O)[O-])ccc32)C(=O)OCC1` (stereo partly drawn) [[^natGa]Sulfo-Cy7-FSC-RGD, metal not drawn] displayed an IC50 of 0.81 ± 0.19 nM.
On to `CC(C)[C@@H]1NC(=O)[C@@H](Cc2ccc(O)cc2)NC(=O)[C@H](CC(=O)O)NC(=O)CNC(=O)[C@H](CCCNC(=N)N)NC1=O` [c(RGDyV), reference compound], for which, in assay [4] (metal-free conjugate or reference peptide, radioligand [125I]-c(RGDyV), 2 h RT), the IC50 was 15.2 ± 2.86 nM.

Source of the values: paper PMC5481817, “Developing Targeted Hybrid Imaging Probes by Chelator Scaffolding” (Bioconjugate chemistry, 2017).
